From patent publication US4752614A, “Pharmaceutical compositions of tellerium and selenium compounds for the induction of in vivo and in vitro production of cytokines” (Bar-Ilan University, priority 1987, dated 1988) come the findings set out here.

In data set [1] the test system is IL-2. As to the kind of experiment: IL-2 secretion by mouse spleen cells in vitro, CTLD proliferation (Example 17). The data set is classed as cell-based, male Balb/c mice. The settings on record: for activation at 1 µg/mL: Mus musculus, read-out: Spleen Cells, percent in parentheses (increase over control). The procedure:
The compounds listed below were tested in vitro at various concentrations that ranged from 10 μg/ml cells to 1×10^-6 μg/ml of cell mixtures. Cells were obtained from spleens of male Balb/c mice 6-8 weeks of age. Spleens were pushed through a stainless steel 60 mesh strainer to separate cells.

Data set [2] has as its system human mononuclear cells. Description: Proliferation of human mononuclear cells, 3H-methylthymidine (Examples 4 and 9). Particulars: 1 to 10 ng/ml cells, 72 hours (Example 9). The data set is classed as cell-based. As to the method: Cells were further incubated overnight and harvested with a cell harvester.
For data set [3], the system named is IL-2. As to the kind of experiment: Oral administration in drinking water, IL-2 content of spleen cell supernatants (Example 13). The data set is classed as in vivo, male Balb-C mice. Particulars: 4 days. The procedure:
The water solution was prepared by dissolving the compounds in PBS at a concentration of 50 μg/ml PBS and diluting the resulting solution to the desired concentration. The compounds were administered over a 4 day period. The exact amount of liquid intake was recorded daily. […] The cells were incubated at a concentration of 10^7 cells/ml in enriched RPMI containing 2 μg/ml of con-A for 24 hours at 37° C. The supernatants were collected and tested for IL-2 content.

Data set [4] concerns IL-2 receptors. Description: Induction of IL-2 receptors of human mononuclear cells, proliferation with recombinant IL-2 (Example 18). The data set is classed as cell-based. The procedure:
Human MNC were brought to a concentration of 10^6 cells/ml. RPMI+10% FCS. Aliquots of 0.2 ml. were placed in duplicate wells of microdishes and plates were incubated at 37° C. for 24 hrs. […] Plates were further incubated for 48 hrs. and labelled with 3H thymidine 24 hrs. before harvesting.
The proliferation was measured by ^3 HT uptake as described by Gillis et al, J. Immunol. […] The results are expressed in counts per minute.

For data set [5], the system named is human mononuclear cells. As to the kind of experiment: Proliferation of human mononuclear cells (Example 19). The data set is classed as cell-based. As to the method:
Human mononuclear cells were obtained by layering heparinized blood over a Ficoll/Hypaque gradient. The mononuclear cells were resuspended in enriched RPMI, rinsed three times and brought to a concentrations of 5×10^5 cells/ml encriched RPMI. […] Aliquots of 0.2 ml of each sample were placed in wells of microplates (triplicates). Microplates were incubated for 72 hours at 37° C. after which they were labelled with H^3 methyl-thymidine 1 μCi/well for an additional 24 hours. Cells were then harvested with a cell harvester.

Data set [6] deals with receptor sites for IL-2. Description: Detection of IL-2 receptors with fluoresceinated antibody (Example 21). The data set is classed as cell-based, human. The settings on record: 1 μg/ml, 24 hours. As to the method: This example provides an assay to detect the presence of receptor sites for IL-2. […] The cells were washed twice with PDS and then incubated with a specific fluoresceinated antibody against IL-2 receptors as described in Uchiyama et al, J. Immunol.

Data set [7] deals with T-cell lymphocytes. As to the kind of experiment: Lymphokine induction, proliferation and receptor activation in T-cell lymphocytes (statement). The text has this: Thus the invention also contemplates the use alone of TeO2 and tellurium compounds that are active as lymphokine inducers.
The mark [8] stands for this setting: 24 hours, 1 μg/ml of cell mixture.
[9] abbreviates: second part of table, 1 × 10^-1 μg/ml.
Where [10] appears, read: second part of table, 1 × 10^-2 μg/ml.
Setting [11] is: second part of table, 1 × 10^-3 μg/ml.
The mark [12] stands for this setting: second part of table, 1 × 10^-4 μg/ml.
The mark [13] stands for this setting: second part of table, 5 × 10^-1 μg/ml.
Where [14] appears, read: second part of table, 5 × 10^-2 μg/ml.

Molecules are shown by their SMILES. Values joined by “and” are separate entries in the source; they are usually repeats but may differ in a detail not shown here. Identical values can stand only once.

On to `COc1ccc([Te](Cl)(Cl)c2ccc(OC)cc2)cc1` [(pCH3 OPh)2 TeCl2, reference compound], for which, in data set [1] (setting [8]), the “Spleen Cells (IL-2 activity)” value was 2,148 cpm.
For `Cl[Te]1(Cl)OCCO1` [Example 2], the “increase of proliferation of human mononuclear cells” value in data set [2] was 10 fold. The IL-2 content turned out to be 42500 cpm in data set [3] (1 μg/ml H2O), 36815 cpm in data set [3] (10 μg/ml H2O) and 44500 cpm in data set [3] (25 μg/ml H2O). Moreover, the “Percent increase as compared to control” value was “+30%” in data set [3] (1 μg/ml H2O) and “+35%” in data set [3] (25 μg/ml H2O). For the same compound, the “Spleen Cells (IL-2 activity)” value in data set [1] (setting [8]) was 18,000 cpm. The activation at 1 µg/mL in data set [1] (setting [8]) was 605%. The “proliferation (3HT uptake)” value in data set [4] (Test B, 1 μg/ml) stood at 9315 counts per minute; in data set [4] (Test B, 1 × 10^-2 μg/ml), 6418 counts per minute; in data set [4] (Test B, 1 × 10^-3 μg/ml) it was 5167 counts per minute; in data set [4] (Test B, 1 × 10^-4 μg/ml), 5372 counts per minute; in data set [4] (Test B, 1 × 10^-5 μg/ml) it was 6397 counts per minute; in data set [4] (Test B, 5 × 10^-1 μg/ml) it was 8688 counts per minute. The “proliferation (3HT uptake)” value is 5538 counts per minute in data set [4] (Test B, 5 × 10^-2 μg/ml) and 5250 counts per minute in data set [4] (Test B, 7 × 10^-1 μg/ml). The “proliferation of human mononuclear cells” value in data set [5] (Ex. 2 table, 1 × 10^-4 μg/ml) is 4321 and 2332; in data set [5] (Ex. 2 table, 5 × 10^-1 μg/ml), 18415 and 23957; in data set [5] (Ex. 2 table, 5 × 10^-2 μg/ml) it was 5953 and 5532.
Take `C1CO[Te]2(O1)OCCO2` [Example 14]: in data set [1] (setting [8]), the “Spleen Cells (IL-2 activity)” value was 10,300 cpm. Also, in data set [1] (setting [8]), the activation at 1 µg/mL is 304%. The “proliferation (3HT uptake)” value is recorded as 2620 counts per minute in data set [4] (Test B, 1 μg/ml); 3928 counts per minute in data set [4] (Test B, 1 × 10^-2 μg/ml); 3007 counts per minute in data set [4] (Test B, 1 × 10^-3 μg/ml); 2327 counts per minute in data set [4] (Test B, 1 × 10^-4 μg/ml); 2242 counts per minute in data set [4] (Test B, 1 × 10^-5 μg/ml); 2402 counts per minute in data set [4] (Test B, 5 × 10^-1 μg/ml). Moreover, the “proliferation (3HT uptake)” value is recorded as 3290 counts per minute in data set [4] (Test B, 5 × 10^-2 μg/ml) and 2000 counts per minute in data set [4] (Test B, 7 × 10^-1 μg/ml).
With `CC1CO[TeH](Cl)(Cl)(Cl)O1` (centres unmarked) [Example 16(a)], the “Spleen Cells (IL-2 activity)” value in data set [1] (setting [8]) is recorded as 13,540 cpm. Moreover, the activation at 1 µg/mL in data set [1] (setting [8]) was 435%. In addition, the “proliferation (3HT uptake)” value in data set [4] (Test A, 1 μg/ml) worked out at 21910 counts per minute; in data set [4] (Test A, 1 × 10^-2 μg/ml), 9543 counts per minute; in data set [4] (Test A, 1 × 10^-3 μg/ml) it was 6685 counts per minute; in data set [4] (Test A, 1 × 10^-4 μg/ml), 6447 counts per minute; in data set [4] (Test A, 1 × 10^-5 μg/ml), 8177 counts per minute; in data set [4] (Test A, 5 × 10^-1 μg/ml), 145208 counts per minute. The “proliferation (3HT uptake)” value is reported as 8752 counts per minute in data set [4] (Test A, 5 × 10^-2 μg/ml) and 130845 counts per minute in data set [4] (Test A, 7 × 10^-1 μg/ml). For the same compound, the “proliferation of human mononuclear cells” value in data set [5] (second part of table, 1 μg/ml) worked out at 4557; in data set [5] (second part of table, 5 μg/ml) it was 4118; in data set [5] (setting [9]), 12435; in data set [5] (setting [10]), 6000; in data set [5] (setting [11]), 6300; in data set [5] (setting [12]), 4587. Moreover, the “proliferation of human mononuclear cells” value in data set [5] (setting [13]) was 18415; in data set [5] (setting [14]) it was 5953.
`CC1O[TeH](Cl)(Cl)(Cl)OC1C` (centres unmarked) [Example 16(b)]: the “Spleen Cells (IL-2 activity)” value in data set [1] (setting [8]) is reported as 10,650 cpm. In addition, the activation at 1 µg/mL in data set [1] (setting [8]) stood at 318%. In addition, the “proliferation (3HT uptake)” value is given as 1018 counts per minute in data set [4] (Test A, 1 μg/ml); 5883 counts per minute in data set [4] (Test A, 1 × 10^-2 μg/ml); 1093 counts per minute in data set [4] (Test A, 1 × 10^-3 μg/ml); 1138 counts per minute in data set [4] (Test A, 1 × 10^-4 μg/ml); 2146 counts per minute in data set [4] (Test A, 1 × 10^-5 μg/ml); 1195 counts per minute in data set [4] (Test A, 5 × 10^-1 μg/ml). Further, the “proliferation (3HT uptake)” value in data set [4] (Test A, 5 × 10^-2 μg/ml) is given as 1602 counts per minute; in data set [4] (Test A, 7 × 10^-1 μg/ml) it was 2102 counts per minute.
As for `Cl[TeH]1(Cl)(Cl)OCCCO1` [Example 16(c)], in data set [1] (setting [8]), the “Spleen Cells (IL-2 activity)” value is recorded as 15,720 cpm and the activation at 1 µg/mL amounted to 516%.
On the same counts, the results for `Cl[TeH]1(Cl)(Cl)OCCCCO1` [Example 16(d)] are 18,075 cpm and 608%.
Regarding `CC(=O)O[Te](OC(C)=O)(c1ccccc1)c1ccccc1` [Ph2 Te (OCOCH3)2, reference compound], the “Spleen Cells (IL-2 activity)” value in data set [1] (setting [8]) is given as 3,500 cpm. Further, the “activity at level tested (footnote *)” value in data set [1] is “no significant activity”.
On the same counts, the results for `O=C(O[Te](OC(=O)c1ccccc1)(c1ccccc1)c1ccccc1)c1ccccc1` [Ph2 Te (OCOPh)2, reference compound] are 4,300 cpm and “no significant activity”.
Consider `Cl[Te](Cl)(c1ccccc1)c1ccccc1` [Ph2 Te Cl2, reference compound], for which the “Spleen Cells (IL-2 activity)” value in data set [1] (setting [8]) was 2,300 cpm. For the same compound, in data set [1], the “activity at level tested (footnote *)” value was “no significant activity”.
With `Cl[Te](Cl)(Cl)c1ccccc1` [Ph Te Cl3, reference compound], in data set [1] (setting [8]), the “Spleen Cells (IL-2 activity)” value is reported as 18,000 cpm and the activation at 1 µg/mL came out at 605%.
With `O=[Te]=O` [TeO2, Tellurium dioxide, reference compound], the “Spleen Cells (IL-2 activity)” value in data set [1] (setting [8]) is given as 17,055 cpm. The “Spleen Cells, percent in parentheses (increase over control)” value in data set [1] (setting [8]) is “+508%”. Besides, the “proliferation (3HT uptake)” value in data set [4] (Test A, 1 μg/ml) was found to be 1563 counts per minute; in data set [4] (Test A, 1 × 10^-2 μg/ml), 3108 counts per minute; in data set [4] (Test A, 1 × 10^-3 μg/ml) it was 2867 counts per minute; in data set [4] (Test A, 1 × 10^-4 μg/ml) it was 5540 counts per minute; in data set [4] (Test A, 1 × 10^-5 μg/ml), 3442 counts per minute; in data set [4] (Test A, 5 × 10^-1 μg/ml), 4667 counts per minute. Also, the “proliferation (3HT uptake)” value was found to be 2515 counts per minute in data set [4] (Test A, 5 × 10^-2 μg/ml); 2475 counts per minute in data set [4] (Test A, 7 × 10^-1 μg/ml); 3275 counts per minute in data set [4] (Test B, 1 μg/ml); 3077 counts per minute in data set [4] (Test B, 1 × 10^-2 μg/ml); 3800 counts per minute in data set [4] (Test B, 1 × 10^-3 μg/ml); 2925 counts per minute in data set [4] (Test B, 1 × 10^-4 μg/ml). The “proliferation (3HT uptake)” value was determined as 3645 counts per minute in data set [4] (Test B, 1 × 10^-5 μg/ml); 5405 counts per minute in data set [4] (Test B, 5 × 10^-1 μg/ml); 4280 counts per minute in data set [4] (Test B, 5 × 10^-2 μg/ml); 4302 counts per minute in data set [4] (Test B, 7 × 10^-1 μg/ml). In addition, the effect on proliferation result in data set [5] (any concentration that was tested) was “No significant effect”. Also, the “proliferation of human mononuclear cells” value in data set [5] (second part of table, 1 μg/ml) is 2842; in data set [5] (second part of table, 5 μg/ml) it was 3028; in data set [5] (setting [9]) it was 4825; in data set [5] (setting [10]), 4730; in data set [5] (setting [11]), 6168; in data set [5] (setting [12]) it was 5331. Moreover, the “proliferation of human mononuclear cells” value in data set [5] (setting [13]) came to 4773; in data set [5] (setting [14]), 5802. Further, the “cells positive for IL-2 receptors” value in data set [6] was found to be 5%. In data set [7], the “activation of the receptor site in responder T-cell lymphocytes” value is listed as “will not cause proliferation of IL-2 producer cells or activate the receptor site”. In data set [7], the “proliferation of IL-2 producer cells” value was “will not cause proliferation of IL-2 producer cells”. Besides, the “lymphokine production in producer T-cell lymphocytes” value in data set [7] (in vitro and in vivo) was “will induce lymphokine production”.
